PubChem BioAssay AID1508612

Test: passive permeability, PAMPA, ADME assay (AID 1508612)
Conditions: pH 7.4, 30.0 min, 50.0 µM

Row | SMILES | Papp [×10⁻⁶ cm/s]
1 | Oc1ccc(CNc2ccc(C(F)(F)F)cc2F)c2cccnc12 | 150
2 | Cc1cccc(-n2c(C)cc(C=C(C#N)C#N)c2C)c1 | 43
3 | O=C(NCCc1nc2ccccc2n1CCO)C1CCCCC1 | 85.4
4 | O=C1Nc2ccccc2/C1=C\c1cc(F)c(O)c(F)c1 | 26.9
5 | CNc1oc(-c2cccc3ccccc23)nc1C(=O)OC | > 1000
6 | Clc1ccccc1-c1nnc2sc(-c3ccc4c(c3)OCO4)nn12 | 958
7 | COc1ccc(-c2csc(N3CCC(C(N)=O)CC3)n2)cc1OC | 270
8 | CN1CCN(C2=Nc3cc(Cl)ccc3Nc3ccccc32)CC1 | > 1000
9 | c1ccc2c(Nc3ccon3)nc(-c3ccncc3)nc2c1 | 247
10 | Nc1nc2c(s1)C(c1cccc(Cl)c1Cl)CC(=O)N2 (stereo unspecified) | 505
11 | COc1ccc(NC(=O)c2[nH]c(C)c(C(C)=O)c2C)cc1S(=O)(=O)N1CCCCC1 | 757
12 | Fc1cc(Nc2nc(-c3ccncc3)nc3ccccc23)ccc1-c1cccc(OC(F)(F)F)c1 | 23.5
13 | C[C@]12CC[C@@H]3[C@H](CCC4=CC(=O)CC[C@]43C)[C@]1(O)CC[C@@]2(O)C(=O)CO | 30.8
14 | COc1ccnc(NC(=S)N2CCN(c3ncc(C(F)(F)F)cc3Cl)CC2)c1 | > 1000
15 | CN(Cc1ccccc1)C(=O)c1ccc(S(=O)(=O)Nc2ccccc2)cc1 | 288
16 | FC(F)(F)c1ccccc1-c1nc(NCc2cccs2)c2ccccc2n1 | > 1000
17 | COc1ccc(NC(=O)c2[nH]c(C)c(C(C)=O)c2C)cc1S(=O)(=O)N1CCCCCC1 | 989
18 | COc1cccc(CNc2ccc(S(=O)(=O)Nc3ccc(N4CCNCC4)nc3)cc2)c1O | 10.7
19 | CCn1nc(C2CCN(C(=O)CCO)CC2)nc1-c1cnc(N)c(-c2nnc(C(C)(C)C)o2)n1 | 188
20 | COc1ccccc1CNS(=O)(=O)c1ccc(-c2cnc(C3CC3)o2)cc1 | > 1000
21 | C[C@H]1CCC[C@H](O)CCC/C=C/c2cc(O)cc(O)c2C(=O)O1 | 864

Row | SMILES | Papp [×10⁻⁶ cm/s]
22 | CN(C)c1cccc(-c2ccnc(N3CCC(C(N)=O)CC3)n2)c1 | 333
23 | CCn1nnnc1Sc1ncnc2scc(-c3ccc(C)cc3)c12 | > 1000
24 | Cc1noc(C)c1CN1CCNc2cc(Nc3ccccc3)ncc2C1 | 978
25 | Fc1cc(Nc2nc(-c3ccncc3)nc3ccccc23)ccc1N1CCCC1 | 110
26 | Cc1ccccc1S(=O)(=O)N1CCCC(CCC(=O)NCCN(C)C2CCCCC2)C1 (stereo unspecified) | > 1000
27 | O=C(Nc1nc(-c2ccccn2)cs1)c1cccc(S(=O)(=O)N2CCOCC2)c1 | 657
28 | Cc1noc(C)c1-c1ccc2ncnc(NC(C)c3ccccc3)c2c1 (stereo unspecified) | > 1000
29 | CC(=O)c1c(C)c(C(=O)Nc2cccc([S+](=O)([O-])N(C)C)c2)n(C)c1C | 295
30 | COc1ccc2[nH]c(=O)c(-c3noc(-c4ccc(F)cc4)n3)cc2c1 | 63
31 | CC(C)c1cc(C(=O)N2CC[C@@H](NC(=O)C3CC3)C2)n[nH]1 | 1.3
32 | COC(=O)Nc1nc2ccc(Sc3ccccc3)cc2[nH]1 | 197
33 | CN(C)c1cccc(-c2cnc(N3CCC(C(N)=O)CC3)nc2)c1 | 273
34 | Cc1cc(-c2nnc3n2CCCCC3)c(C)n1-c1ccc(C(C)(C)C)cc1 | > 1000
35 | Cc1nnn(C)c1-c1cnc2c3ccc(C(C)(C)O)cc3n([C@H](c3ccccc3)C3CCOCC3)c2c1 | 746
36 | Cc1cccc(N2CCN(C(=O)c3ccc4c(c3)C(O)CCCCCN4C)CC2)c1 (stereo unspecified) | < 1
37 | CCOC(=O)c1[nH]c(C)c(CCC(=O)N2CCN(c3cccc(C)c3C)CC2)c1C | > 1000
38 | Oc1ccc(CNc2ccccc2C(F)(F)F)c2cccnc12 | 17
39 | C[C@H]1CN(C(=O)Nc2ccc(F)cc2)C[C@@H]1c1nc(-c2ccccc2)no1 | > 1000
40 | Cc1nc2nc(NC(=O)c3ccc(C(C)(C)C)cc3)[nH]n2c(=O)c1Cl | 8.91
41 | COc1cc(Cl)c(C)cc1Nc1c2c(nc3ccccc13)CCC2 | > 1000
42 | Nc1nc2c(s1)C(c1cc(Cl)ccc1F)CC(=O)N2 (stereo unspecified) | 476

Row | SMILES | Papp [×10⁻⁶ cm/s]
43 | CCCCC1CCC(C(=O)Nc2ccc(S(=O)(=O)Nc3nccs3)cc2)CC1 (stereo unspecified) | 587
44 | CC(C)CN(CC(=O)N(CCCN1CCCC1=O)CC(N)=O)C(=O)CNCCc1ccccc1F | 11.6
45 | O=C(Nc1ccc(Cl)c(S(=O)(=O)N2CCOCC2)c1)c1ccccc1 | 728
46 | Fc1cc(Nc2nc(-c3ccncc3)nc3ccccc23)ccc1N1CCCCC1 | > 1000
47 | CC/C=C\C/C=C\C/C=C\C/C=C\C/C=C\C/C=C\CCC(=O)NCCO | 298
48 | Cc1cc(C)nc(NC(=S)N2CCN(c3cc(C(F)(F)F)nc4ccc(C(F)(F)F)cc34)CC2)c1 | 636
49 | CC(=O)c1c(C)[nH]c(C(=O)Nc2cccc(S(=O)(=O)N3CCOCC3)c2)c1C | 475
50 | NC(=O)C1CCN(c2nc(-c3cccc(Cl)c3)cs2)CC1 | > 1000
51 | COc1ccc(OC)c(-c2nc3c(C#N)c[nH]n3c2NC2CCCCC2)c1 | > 1000
52 | O=C1NC(=O)C(c2cnc3ccccn23)=C1c1cn2c3c(cccc13)CN(C(=O)N1CCOCC1)CC2 | 82.9
53 | c1ccc(C2=Nn3c(nnc3-c3ccncc3)SC2)cc1 | 195
54 | Cc1nc(-c2ccccc2)cc([C@H]2CN3CC[C@H]2C[C@@H]3CNC2CCOCC2)n1 | 369
55 | CN(C)c1cccc(-c2cnc(Nc3cccnc3)c3c2CCO3)c1 | > 1000
56 | COc1ccnc(NC(=S)N2CCN(c3ccc(Cl)c(Cl)c3)CC2)c1 | 601
57 | CCN(CCN(C)C)C(=O)C1CCN(S(=O)(=O)c2c(C)noc2/C=C/c2ccccc2F)CC1 | > 1000
58 | O=C(Nc1cccc(OC(F)(F)F)c1)c1cc(-c2ccc[nH]2)n[nH]1 | 26.6
59 | CCOC(=O)C1CCN(C(=O)C2(NC(=O)Nc3ccc(F)cc3F)CCCCC2)CC1 | 177
60 | Cc1ccc2oc3c(c(=O)c2c1)C(c1ccc(O)cc1)N(CCCN(C)C)C3=O (stereo unspecified) | < 1
61 | Fc1cc(-c2nc(Nc3ccc(F)c(F)c3)c3ccccc3n2)ccn1 | 116
62 | C[C@H]1CN(C(=O)c2nn(C)c3ccccc23)C[C@@H]1c1nc(-c2cccnc2)no1 | 982
63 | Nc1nc2c(s1)C(c1ccccc1OCc1ccccc1Cl)CC(=O)N2 (stereo unspecified) | 509

Second part, the compound after the results:

Row | Papp [×10⁻⁶ cm/s] | SMILES
64 | 676 | Cc1cn(-c2cc(NC(=O)c3ccc(C)c(Nc4nccc(-c5cccnc5)n4)c3)cc(C(F)(F)F)c2)cn1
65 | 836 | O=C(NC1CCCc2c1cnn2-c1cccc(O)c1)c1ccccn1 (stereo unspecified)
66 | 80.4 | CCOc1ccc(NC(=O)c2cccc(-n3cccc3)c2)cc1S(=O)(=O)N1CCOCC1
67 | < 1 | Cc1ccc(S(=O)(=O)Nc2ccncc2C(=O)Nc2nc(-c3ccccc3)cs2)cc1
68 | > 1000 | Fc1cnc(-c2ccccc2C(F)F)nc1NCc1ccc(-n2ccnn2)cc1
69 | 741 | CN(C(=O)CSc1nc2ccc(NC(=O)c3ccc(F)cc3)cc2s1)c1ccccc1
70 | 762 | CCNC(=O)Nc1ncc(-c2cc(-c3c(C)cc(OC)cc3C)nc(-c3cnccn3)n2)s1
71 | 266 | COc1cc(N2CCC(N3CCN(C)CC3)CC2)ccc1Nc1ncc(Cl)c(Nc2ccccc2P(C)(C)=O)n1
72 | 569 | Fc1ccc(CNc2nc(-c3ccncc3)nc3ccccc23)cc1F
73 | > 1000 | Cc1cccc(-n2cnc3cc(C(=O)N4CCCC(C(C)C)C4)ccc32)c1 (stereo unspecified)
74 | 993 | Cc1ccc(OCCn2c(CCNC(=O)c3ccccc3Br)nc3ccccc32)cc1
75 | 1.8 | Cc1nn2c(c1-c1ccccc1-c1ccccc1)N(Cc1ccc(O)cc1)CCC2
76 | 10.4 | Cc1cc(NS(=O)(=O)c2ccc(NC(=O)Cc3ccc(F)c(Cl)c3)cc2)no1
77 | 1.62 | CCc1c(C)nc2c(-c3cnn(-c4cc(CO)ccn4)c3)c[nH]n2c1=O
78 | 406 | Cc1ccccc1-c1nc(NCc2cccs2)c2ccccc2n1
79 | > 1000 | CCOc1ccc(CCNC(=O)c2cc3sccc3n2Cc2ccc(-n3cncn3)cc2)cc1OCC
80 | 468 | O=C(Nc1nc(-c2ccccc2)cs1)c1ccncc1NS(=O)(=O)c1ccccc1F
81 | 581 | COc1ccc(NC(=O)c2c(C)cccc2C)cc1S(=O)(=O)Nc1ccc(Br)cc1
82 | > 1000 | CCN1C(=O)c2ccccc2S(=O)c2ccc(NC(=O)Cc3ccc(F)cc3)cc21 (stereo unspecified)
83 | 2.4 | O=S(=O)(Nc1nccs1)c1ccc(NCc2cccc3cc[nH]c23)cc1
84 | < 1 | Cc1cccc(NCc2ccc(O)c3ncccc23)c1
85 | 31.7 | Cc1cc(NS(=O)(=O)c2ccc(NC(=O)Cc3ccc(Cl)c(Cl)c3)cc2)n(C)n1

Row | Papp [×10⁻⁶ cm/s] | SMILES
86 | 572 | COc1cccc(CNc2ccc(S(=O)(=O)Nc3cccs3)cc2)c1O
87 | > 1000 | CC(C)n1cc(-c2ccc(Oc3ccccc3)cc2)c2c(N)ncnc21
88 | 320 | Cc1cc(-c2cc3c(nc2-c2ccccc2)nc(C(=O)NCCN(C)C)n3C)ccn1
89 | > 1000 | CSc1ccc(/C=C/c2nc3ccccc3n2S(=O)(=O)c2ccc(Br)cc2)cc1
90 | 20.3 | Cc1ccc(S(=O)(=O)Nc2cnccc2C(=O)NCCc2ccccc2)cc1
91 | > 1000 | Cc1ccc(-c2cc(C(=O)Nc3ccccn3)c3ccccc3n2)cc1
92 | 17.1 | CCCC1=Nc2cc(C(=O)NC3CCCCC3)ccc2Sc2ccc(C)cc21
93 | > 1000 | CCOc1ccccc1CNS(=O)(=O)c1ccc(-c2cnc(C3CC3)o2)cc1
94 | 139 | COc1ccc(C(=O)NC2CCCc3c2[nH]c2c(Cl)cccc32)cc1OC (stereo unspecified)
95 | > 1000 | Cc1c(C(=O)NN2CCCCC2)nn(-c2ccc(Cl)cc2Cl)c1-c1ccc(Cl)cc1
96 | > 1000 | CCN1C(=O)c2ccccc2S(=O)c2ccc(NC(=O)Cc3ccc(OC)cc3)cc21 (stereo unspecified)
97 | 188 | CC(C)C(=O)N1CCc2ccc(OCc3nc(C(=O)N4CCCC4)co3)cc2C1c1cccc(F)c1 (stereo unspecified)
98 | 866 | O=c1ncn2nc(Sc3ccc(F)cc3F)ccc2c1-c1c(Cl)cccc1Cl
99 | > 1000 | Cc1ccc(C(=O)Nc2ccc(CN3CCN(C)CC3)c(C(F)(F)F)c2)cc1C#Cc1cnc2cccnn12
100 | 153 | Cc1ccc(S(=O)(=O)Nc2cnccc2C(=O)Nc2nc(-c3cccc(F)c3)cs2)cc1
101 | 71 | Cc1ccc(-c2cc(C(=O)NCc3ccc(S(N)(=O)=O)cc3)c3ccccc3n2)cc1C
102 | > 1000 | Cc1ccc(OCCn2c(CCNC(=O)N3CCCCC3)nc3ccccc32)cc1
103 | 45.6 | O=C(c1ccc(-c2ncc3cnc(-c4ccccc4)cn23)cc1)N1CCS(=O)(=O)CC1
104 | > 1000 | Cc1ccc(S(=O)(=O)Nc2cnccc2C(=O)Nc2nc(-c3ccc(C)c(C)c3)cs2)cc1
105 | 530 | Cc1ccc(-c2csc(NC(=O)c3ccncc3NS(=O)(=O)c3ccc(C)cc3)n2)cc1
106 | < 1 | Cc1ccc(-c2nc(NCC(=O)Nc3cccc(C(=O)O)c3)c3ccccc3n2)cc1
